Experimental data taken from US20220017572A1, “GEMINOID LIPOPEPTIDE COMPOUNDS AND THEIR USES” (Erasmus University Medical Center Rotterdam, priority 2016, published 2022).
Non-standard residues stand in square brackets, D forms with d. Residues, ends and D or L forms follow the SMILES beside them. C12 = C12 alkyl chain at peptide end (geminoid); C16 = C16 alkyl chain at peptide end (geminoid); C20 = C20 alkyl chain at peptide end (geminoid); C3 = C3 alkyl chain at peptide end

Biological target: T1, dengue 2 protease (Dengue virus type 2, UniProt P14340)
T1 construct: The active site of the dengue protease is in the N-terminal part of NS3
T1 sequence (P14340 1476-1653): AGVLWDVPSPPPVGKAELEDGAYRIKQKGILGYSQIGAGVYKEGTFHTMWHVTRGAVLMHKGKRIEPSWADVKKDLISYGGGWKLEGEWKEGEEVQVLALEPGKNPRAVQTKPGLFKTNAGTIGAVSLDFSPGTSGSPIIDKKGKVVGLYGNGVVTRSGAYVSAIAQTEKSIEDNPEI
Assay: Dengue 2 protease inhibition, hydrolysis of Z-RR-MCA
Format: biochemical, dengue 2 virus
Parameters: Activity with inhibitors: unit not given here
Details: not given
Description: The active site of the dengue protease is in the N-terminal part of NS3 which is also a serine protease with catalytic triad Asp79-His51-Ser135, but requires […] (CF40) for activity; the inhibition reported here was studied on a […] (CF40-GGGGSGGGG-NS3; (SEQ ID NO:54)) which has also been structurally characterized [Erbel et al., 2006; Luo et al. 2008].
Substrate was added in a concentration 10 times the Km, and the inhibitor compounds of type C (C16-KGnK-C16, C16-KAnK-C16, and C16-RAnR-C16) were added in increasing concentrations (1.0, 5.0, 10.0, 20.0, 40.0 μL) from a stock solution of 2 mg in 1 mL DMSO. The residual activity was measured in a Hitachi F2500 spectrofluorimeter, and plots were fitted using the Grafit® software (Erithracus Software, Horley, Surrey, UK). All the assays were calculated by the Morrison equation for competitive inhibition (eq. 1, [Morrison, 1969]). The amount of substrate used for the tight binding titration experiments follow all the requirements, where [S]<<Km for all enzymes, so the Kiapp=Ki.
Range of Proteases Inhibited by Geminoids, Determination of Ki with Z-RR-MCA (Dengue 2 Protease) and Ac-RVRR-MCA (Furin) (SEQ ID NO:60).

Row | Compound | Ki
1 | CCCCCCCCCCCCNC(=O)[C@H](CCCCN)NC(=O)[C@H](C)NC(=O)[C@H](C)NC(=O)[C@H](C)NC(=O)[C@H](CCCCN)NC(=O)CCCCCCCCCCC [C12KA3KC12, n-C11H23C(O)-Lys-(Ala)3-Lys-(n-C12H25).2TFA] (HELM PEPTIDE1{[CCCCCCCCCCCC(=O)[*:2]].K.A.A.A.K.[CCCCCCCCCCCCN[*:1]]}$$$$V2.0) | 5.4 µM
2 | CCCCCCCCCCCCCCCCNC(=O)[C@H](CCCNC(=N)N)NC(=O)[C@H](C)NC(=O)[C@H](C)NC(=O)[C@H](C)NC(=O)[C@H](CCCNC(=N)N)NC(=O)CCCCCCCCCCCCCCC [C16RA3RC16, n-C15H31C(O)-Arg-(Ala)3-Arg-(n-C16H33).2TFA] (HELM PEPTIDE1{[CCCCCCCCCCCCCCCC(=O)[*:2]].R.A.A.A.R.[CCCCCCCCCCCCCCCCN[*:1]]}$$$$V2.0) | 1.3 µM

Same assay, conditions: 5 μM of inhibitor; 10 μM Z-RR-MCA, pH 9.0, 37° C.; initial activity in UAF/min

Row | Compound | Activity with inhibitors
3 | CCCCCCCCCCCCNC(=O)[C@H](CCCCN)NC(=O)[C@H](C)NC(=O)[C@H](C)NC(=O)[C@H](C)NC(=O)[C@H](CCCCN)NC(=O)CCCCCCCCCCC [C12KA3KC12, n-C11H23C(O)-Lys-(Ala)3-Lys-(n-C12H25).2TFA] (HELM PEPTIDE1{[CCCCCCCCCCCC(=O)[*:2]].K.A.A.A.K.[CCCCCCCCCCCCN[*:1]]}$$$$V2.0) | 30

Same assay, conditions: 15 μM of inhibitor; 10 μM Z-RR-MCA, pH 9.0, 37° C.; initial activity in UAF/min

Row | Compound | Activity with inhibitors
4 | CCCCCCCCCCCCCCCCNC(=O)[C@H](CCCNC(=N)N)NC(=O)[C@H](C)NC(=O)[C@H](C)NC(=O)[C@H](C)NC(=O)[C@H](CCCNC(=N)N)NC(=O)CCCCCCCCCCCCCCC [C16RA3RC16, n-C15H31C(O)-Arg-(Ala)3-Arg-(n-C16H33).2TFA] (HELM PEPTIDE1{[CCCCCCCCCCCCCCCC(=O)[*:2]].R.A.A.A.R.[CCCCCCCCCCCCCCCCN[*:1]]}$$$$V2.0) | 55

Biological target: T1, dengue 2 protease
Assay: Dengue 2 protease inhibition in presence of Triton X-100 (detergent test, Nature Protocol)
Format: biochemical, dengue 2 virus
Details: 5 μM of inhibitor, 0.05% Triton X-100
From the text: A further investigation of the interactions of the geminoid inhibitors with biological membranes and with membrane-bound proteases is needed. […] The preparation and tests of peptides symmetrically, asymmetrically and singly alkylated with saturated, short (C6), and unsaturated (C18:1) alkyl tails are in progress.

Row | Compound | % recovery in presence of Triton
5 | CCCCCCCCCCCCNC(=O)[C@H](CCCCN)NC(=O)[C@H](C)NC(=O)[C@H](C)NC(=O)[C@H](C)NC(=O)[C@H](CCCCN)NC(=O)CCCCCCCCCCC [C12KA3KC12, n-C11H23C(O)-Lys-(Ala)3-Lys-(n-C12H25).2TFA] (HELM PEPTIDE1{[CCCCCCCCCCCC(=O)[*:2]].K.A.A.A.K.[CCCCCCCCCCCCN[*:1]]}$$$$V2.0) | 45%

Same assay, conditions: 5 μM of inhibitor, 0.05% Triton X-100; initial activity in UAF/min

Row | Compound | Activity with 0.05% Triton
6 | CCCCCCCCCCCCNC(=O)[C@H](CCCCN)NC(=O)[C@H](C)NC(=O)[C@H](C)NC(=O)[C@H](C)NC(=O)[C@H](CCCCN)NC(=O)CCCCCCCCCCC [C12KA3KC12, n-C11H23C(O)-Lys-(Ala)3-Lys-(n-C12H25).2TFA] (HELM PEPTIDE1{[CCCCCCCCCCCC(=O)[*:2]].K.A.A.A.K.[CCCCCCCCCCCCN[*:1]]}$$$$V2.0) | 85

Same assay, conditions: 15 μM of inhibitor, 0.05% Triton X-100

Row | Compound | % recovery in presence of Triton
7 | CCCCCCCCCCCCCCCCNC(=O)[C@H](CCCNC(=N)N)NC(=O)[C@H](C)NC(=O)[C@H](C)NC(=O)[C@H](C)NC(=O)[C@H](CCCNC(=N)N)NC(=O)CCCCCCCCCCCCCCC [C16RA3RC16, n-C15H31C(O)-Arg-(Ala)3-Arg-(n-C16H33).2TFA] (HELM PEPTIDE1{[CCCCCCCCCCCCCCCC(=O)[*:2]].R.A.A.A.R.[CCCCCCCCCCCCCCCCN[*:1]]}$$$$V2.0) | 50%

Same assay, conditions: 15 μM of inhibitor, 0.05% Triton X-100; initial activity in UAF/min

Row | Compound | Activity with 0.05% Triton
8 | CCCCCCCCCCCCCCCCNC(=O)[C@H](CCCNC(=N)N)NC(=O)[C@H](C)NC(=O)[C@H](C)NC(=O)[C@H](C)NC(=O)[C@H](CCCNC(=N)N)NC(=O)CCCCCCCCCCCCCCC [C16RA3RC16, n-C15H31C(O)-Arg-(Ala)3-Arg-(n-C16H33).2TFA] (HELM PEPTIDE1{[CCCCCCCCCCCCCCCC(=O)[*:2]].R.A.A.A.R.[CCCCCCCCCCCCCCCCN[*:1]]}$$$$V2.0) | 124

System: DENV2 protease replicon
Assay: DENV2 protease replicon assay
Format: cell-based
Details: lowest concentration with observed activity in replicon assay

Row | Compound | Replicon activity [μM] (1)
9 | C2-AKAK-C3: alkylated peptide in shorthand Cp-Zn-Cq, peptide SEQ ID NO: 74 (Et-AKAK-C3) | 10.0 µM
10 | C2-LKAK-C3: alkylated peptide in shorthand Cp-Zn-Cq, peptide SEQ ID NO: 75 (Et-LKAK-C3) | 10.0 µM
11 | C3-AKKK-C3: alkylated peptide in shorthand Cp-Zn-Cq, peptide SEQ ID NO: 71 ({C3 alkyl}-AKKK-{C3 alkyl}) | 10.0 µM
12 | C3-ARRK-C3: alkylated peptide in shorthand Cp-Zn-Cq, peptide SEQ ID NO: 76 ({C3 alkyl}-ARRK-{C3 alkyl}) | 3.0 µM
13 | C3-FKKK-C3: alkylated peptide in shorthand Cp-Zn-Cq, peptide SEQ ID NO: 73 ({C3 alkyl}-FKKK-{C3 alkyl}) | 10.0 µM
14 | C3-LKKK-C3: alkylated peptide in shorthand Cp-Zn-Cq, peptide SEQ ID NO: 72 | 10.0 µM
15 | C8-AKAK-C8: alkylated peptide in shorthand Cp-Zn-Cq, peptide SEQ ID NO: 74 ({C8 alkyl}-AKAK-{C8 alkyl}) | 10.0 µM
16 | C8-AKKK-C8: alkylated peptide in shorthand Cp-Zn-Cq, peptide SEQ ID NO: 71 ({C8 alkyl}-AKKK-{C8 alkyl}) | 10.0 µM
17 | C8-ARRK-C8: alkylated peptide in shorthand Cp-Zn-Cq, peptide SEQ ID NO: 76 ({C8 alkyl}-ARRK-{C8 alkyl}) | 10.0 µM
18 | C8-FKKK-C8: alkylated peptide in shorthand Cp-Zn-Cq, peptide SEQ ID NO: 73 ({C8 alkyl}-FKKK-{C8 alkyl}) | 10.0 µM
19 | C8-LKAK-C8: alkylated peptide in shorthand Cp-Zn-Cq, peptide SEQ ID NO: 75 ({C8 alkyl}-LKAK-{C8 alkyl}) | 10.0 µM
20 | C8-LKKK-C8: alkylated peptide in shorthand Cp-Zn-Cq, peptide SEQ ID NO: 72 | 10.0 µM
21 | C12-AKAK-C12: geminoid in shorthand Cp-Zn-Cq, peptide SEQ ID NO: 74 | 10.0 µM
22 | C12-ARRK-C12: geminoid in shorthand Cp-Zn-Cq, peptide SEQ ID NO: 76 | 0.3 µM
23 | C12-FKKK-C12: geminoid in shorthand Cp-Zn-Cq, peptide SEQ ID NO: 73 | 10.0 µM
24 | C12-LKAK-C12: geminoid in shorthand Cp-Zn-Cq, peptide SEQ ID NO: 75 | 10.0 µM
25 | C12-RARK-C12: geminoid in shorthand Cp-Zn-Cq, peptide SEQ ID NO: 77 | 1.0 µM
26 | C16-AAKK-C16: geminoid in shorthand Cp-Zn-Cq, peptide SEQ ID NO: 62 | 5.0 µM
27 | C16-AFKK-C16: geminoid in shorthand Cp-Zn-Cq, peptide SEQ ID NO: 68 | 5.0 µM
28 | C16-AKAKS-C16: geminoid in shorthand Cp-Zn-Cq, peptide SEQ ID NO: 89 | 1.0 µM
29 | C16-AKKK-C16: geminoid in shorthand Cp-Zn-Cq, peptide SEQ ID NO: 71 | 1.0 µM
30 | C16-ALKK-C16: geminoid in shorthand Cp-Zn-Cq, peptide SEQ ID NO: 65 | 10.0 µM
31 | C16-ARRK-C16: geminoid in shorthand Cp-Zn-Cq, peptide SEQ ID NO: 76 | 0.3 µM
32 | C16-D-AKAK-C16: geminoid in shorthand Cp-Zn-Cq, D-peptide, SEQ ID NO: 74 (C16-[dA][dK][dA][dK]-C16) | 2.9 µM

Row | Compound | Replicon activity [μM] (1)
33 | C16-D-AKAKG-C16: geminoid in shorthand Cp-Zn-Cq, D-peptide, SEQ ID NO: 87 (C16-[dA][dK][dA][dK]G-C16) | 3.0 µM
34 | C16-D-AKAKS-C16: geminoid in shorthand Cp-Zn-Cq, D-peptide, SEQ ID NO: 89 (C16-[dA][dK][dA][dK][dS]-C16) | 5.0 µM
35 | C16-D-LKAK-C16: geminoid in shorthand Cp-Zn-Cq, D-peptide, SEQ ID NO: 75 (C16-[dL][dK][dA][dK]-C16) | 9.9 µM
36 | C16-D-LKAK-L-S-C16: geminoid in shorthand Cp-Zn-Cq, D-LKAK with L-S, SEQ ID NO: 90 (C16-[dL][dK][dA][dK]S-C16) | 3.0 µM
37 | C16-D-LKAKG-C16: geminoid in shorthand Cp-Zn-Cq, D-peptide, SEQ ID NO: 88 (C16-[dL][dK][dA][dK]G-C16) | 3.0 µM
38 | C16-FAKK-C16: geminoid in shorthand Cp-Zn-Cq, peptide SEQ ID NO: 64 | 3.0 µM
39 | C16-FFKK-C16: geminoid in shorthand Cp-Zn-Cq, peptide SEQ ID NO: 70 | 5.0 µM
40 | C16-FFQK-C16: geminoid in shorthand Cp-Zn-Cq, peptide SEQ ID NO: 82 | 3.0 µM
41 | C16-FLKK-C16: geminoid in shorthand Cp-Zn-Cq, peptide SEQ ID NO: 67 | 3.0 µM
42 | C16-GLKR-C16: geminoid in shorthand Cp-Zn-Cq, peptide SEQ ID NO: 84 | 3.0 µM
43 | C16-LAKK-C16: geminoid in shorthand Cp-Zn-Cq, peptide SEQ ID NO: 63 | 5.0 µM
44 | C16-LFKK-C16: geminoid in shorthand Cp-Zn-Cq, peptide SEQ ID NO: 69 | 10.0 µM
45 | C16-LKAK-C16: geminoid in shorthand Cp-Zn-Cq, peptide SEQ ID NO: 75 | 3.0 µM
46 | C16-LKKK-C16: geminoid in shorthand Cp-Zn-Cq, peptide SEQ ID NO: 72 | 1.0 µM
47 | C16-LKRR-C16: geminoid in shorthand Cp-Zn-Cq, peptide SEQ ID NO: 83 | 3.0 µM
48 | C16-LLKK-C16: geminoid in shorthand Cp-Zn-Cq, peptide SEQ ID NO: 66 | 3.0 µM
49 | C16-LLQK-C16: geminoid in shorthand Cp-Zn-Cq, peptide SEQ ID NO: 81 | 0.3 µM
50 | C16-NKKR-C16: geminoid in shorthand Cp-Zn-Cq, peptide SEQ ID NO: 86 | 3.0 µM
51 | C16-QRKR-C16: geminoid in shorthand Cp-Zn-Cq, peptide SEQ ID NO: 85 | 3.0 µM
52 | C16-RARK-C16: geminoid in shorthand Cp-Zn-Cq, peptide SEQ ID NO: 77 | 3.0 µM
53 | C20-AKKK-C20: geminoid in shorthand Cp-Zn-Cq, peptide SEQ ID NO: 71 | 3.0 µM
54 | C20-FKKK-C20: geminoid in shorthand Cp-Zn-Cq, peptide SEQ ID NO: 73 ({C20 alkyl}-FKKK-{C20 alkyl}) | 0.9 µM
55 | C20-LKKK-C20: geminoid in shorthand Cp-Zn-Cq, peptide SEQ ID NO: 72 | 1.0 µM
